These results are taken from ChEMBL document CHEMBL3507680, “University of Dundee, Gates Library screen for HepG2 cell viability”.

This data set can be described thus: Human HepG2 cell viability assay in 384 well format. Set-up: dose 125 nL, time 70.5 hour; cytotoxicity at 70.5 h: concentration not given beside the values. The class given is toxicity, cell-based. The note with it: HepG2 cells, read-out: Inhibition.

Take `Cc1ccc2c(n1)N(CCN(C)C)CCN(C(=O)N1CCOCC1)C2`: the cytotoxicity at 70.5 h was -3.39%.
For `C[C@H]1C[C@H]2CN(C(=O)CCOc3ccccc3)CC[C@H]2O1`, the cytotoxicity at 70.5 h was -1.04%.
With `Cn1cccc1C(=O)N1CCn2cc(CN3CCCC3)nc2C1`, the cytotoxicity at 70.5 h is -1.14%.
For the compound `C[C@H]1C[C@H]2CN(C(=O)CC3CC3)CC[C@H]2O1`, the cytotoxicity at 70.5 h is -7.47%.
For `CCC1(CO)CCCN(C(=O)c2cc(COc3cccc(F)c3)[nH]n2)C1` (stereo not drawn), the cytotoxicity at 70.5 h was -3.53%.
As to `Cc1nc[nH]c1CN1CCCC12CCN(c1ccccn1)CC2`, the cytotoxicity at 70.5 h is -3.64%.
For `CN(C)CCN1CC2(CCC1=O)CCN(C(=O)c1ccn(C)n1)CC2` the value was -2.52%; for `CCn1c(C2CCCN(Cc3ccnc4ccccc34)C2)nn(C)c1=O` (stereo not drawn), -7.68%; for `CCC[C@H]1CN(S(=O)(=O)c2ccc(Cl)cc2)C[C@@H]1NC(C)=O`, 22.5%.
For the compound `COc1cc(Oc2ccc(C#N)cn2)ccc1CN1CCCC1`, the cytotoxicity at 70.5 h is -5.77%.
Regarding `O=C(NCCC1CCCCO1)c1coc(COc2ccc(F)cc2)n1` (stereo not drawn), the cytotoxicity at 70.5 h was -6.58%.
Take `OC1(CN2CCC(Oc3cccc(C(F)(F)F)c3)CC2)CCNC1` (stereo not drawn): the cytotoxicity at 70.5 h is -7.31%.
For the compound `O=C(O)c1cccnc1N1CCN(Cc2ccc(F)cc2)C(CCO)C1` (stereo not drawn), the cytotoxicity at 70.5 h stood at 22.4%.
For the compound `O=C(c1ccc(-n2cccn2)cc1Cl)N1CCCC(O)(CO)C1` (stereo not drawn), the cytotoxicity at 70.5 h is -4.68%.
Then `N[C@H]1CN(CCCOc2ccccc2)C[C@@H]1C1CC1`, with -3.74%; and `Cc1nccn1CCC(=O)N1CCCN(CCCc2ccccc2)CC1`, with 1.37%; and `O=C(c1cccc(-c2ncc[nH]2)c1)N1CC[C@H](CO)[C@@H](O)C1`, with -2.73%.
With `Cc1cc(N2CCCC(N(C)C)C2)n2nc(C)cc2n1` (stereo not drawn), the cytotoxicity at 70.5 h is -17%.
For the compound `Cc1noc2ncnc(NC(CC(C)(C)C)c3cccnc3)c12` (stereo not drawn), the cytotoxicity at 70.5 h is -14%.
For the compound `c1ccc(-c2cccc(N3CCC(NCCc4cscn4)CC3)c2)cc1`, the cytotoxicity at 70.5 h was -7.94%.
Turning to `CN1CSC[C@H]1C(=O)N1CCC(Cc2ccccc2F)CC1`, the cytotoxicity at 70.5 h is -4.33%.
`CN(Cc1cc(C2CC2)on1)C(=O)CN1CC(c2ccccc2)CC1=O` (stereo not drawn): the cytotoxicity at 70.5 h was -8.22%.
For the compound `CCc1nc(CNC(=O)c2ccc(C(C)N3CCCCC3)o2)cc(=O)[nH]1` (stereo not drawn), the cytotoxicity at 70.5 h is -6.44%.
Take `Cc1cc(=O)c(C(=O)N2CCC(C(O)Cc3ccccc3)CC2)c(C)[nH]1` (stereo not drawn): the cytotoxicity at 70.5 h is -14.4%.
As to `Cc1ccccc1OC1(C(=O)O)CCN(C(=O)CCc2ccco2)CC1`, the cytotoxicity at 70.5 h was -3.93%.
For the compound `COCCN(CCOC)c1nc2c(s1)c(C)nn2C`, the cytotoxicity at 70.5 h is -13.8%.
On to `Cc1c[nH]c(CN2CCCCC2CCn2cccn2)c(C)c1=O` (stereo not drawn), for which the cytotoxicity at 70.5 h was -10.2%.
Consider `COc1ccc(-c2cc(C3CC3)c(C#N)c(N)n2)cc1F`, for which the cytotoxicity at 70.5 h was determined as 11.2%.
Then `Cc1cc(C)n(CCCN(C)C(=O)[C@H]2CCCO2)n1`, with -14.9%.
Then `O=C(c1ccc(-c2cccc3c2CCNC3)o1)N1CCCC1`, with -9.64%; and `Cc1ccc(-c2nc3cc(S(=O)(=O)N4CCCC4)ccc3n2C)o1`, with -11.7%; and `CCC(C(=O)NCC1CCN(c2cnn(C)c(=O)c2)CC1)n1cccn1` (stereo not drawn), with -7.23%.
As for `Cc1nc2cc(OCc3nc(C(=O)NC(CO)CO)co3)ccc2s1`, the cytotoxicity at 70.5 h was -8.5%.
For `CCn1c(CN(C)C)nnc1C1CCN(Cc2ccc(Cl)cc2)CC1`, the cytotoxicity at 70.5 h is 0.347%.
Turning to `COCCC(=O)N1CCC2(CCN(Cc3cccc(F)c3)CC2)C1`, the cytotoxicity at 70.5 h is -4.51%.
Then `COCCNC(=O)[C@H]1C[C@@H]2CCN(CCc3ccccc3)C[C@H]2O1`, with -11.2%.
In the case of `O=C(NCC1CC1)[C@H]1C[C@@H]2CCN(CCc3ccccc3)C[C@H]2O1`, the cytotoxicity at 70.5 h is -4.59%.
Turning to `CN(Cc1cn2c(n1)CN(Cc1ccc(F)cc1)CC2)Cc1ccco1`, the cytotoxicity at 70.5 h is -8.36%.
